Values quoted from earlier work as cited in publication PMC4855509 (Photochemistry and photobiology, 2014).

Substance: carboxy-tetramethylrhodamine [TMR]
- triplet state quantum yield: 0.001–0.003
